The values that follow come from ChEMBL document CHEMBL1201862, “PubChem BioAssay data set” (2004).

What all share (assay): NCI anticancer screen, dose series, 48 h
The test system of test [1] is 786-0.
Test [2] concerns BT-549.
Test [3] concerns CAKI-1.
Test [4] relates to DU-145.
Test [5] has as its system HL-60.
In test [6] the test system is HT-29.
Test [7] relates to KM12.
In test [8] the test system is MCF7.
The test system of test [9] is MDA-MB-435.
The test system of test [10] is NCI/ADR-RES.
Test [11] relates to OVCAR-4.
In test [12] the test system is RPMI-8226.
The subject of test [13] is RXF 393.
The test system of test [14] is SF-268.
Test [15] has as its system SK-OV-3.
The test system of test [16] is SN12C.
In test [17] the test system is SW-620.
Test [18] relates to T47D.
In test [19] the test system is U-251.
The subject of test [20] is UO-31.

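Method: 48-hour compound exposure of cells in 96-well plates, five concentrations, linear interpolation of endpoints. GI50: concentration for 50% inhibition of growth.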 Activity calls are given as the source filed them. Cut-off read from the data, not from the text of the source: active = GI50 up to about 1.1 µM and inactive = higher.

On to `C=CCSC1=N/C(=C\c2ccccc2)C(=O)N1CC=C`, for which the GI50 was 31.7 µM (inactive) in test [1]; 40.7 µM (inactive) in [2]; 60.5 µM (inactive) in test [3]; > 86.5 µM (inactive) in test [4]; 5.24 µM (inactive) in test [5]; 23.6 µM (inactive) in [6]. Further, the GI50 in test [7] was 38.8 µM (inactive); in test [8] it was 27.8 µM (inactive); in test [9], 36.8 µM (inactive); in test [10], 45.1 µM (inactive); in [11], 40.6 µM (inactive); in test [12], 24.7 µM (inactive). In addition, the GI50 in test [13] is 20.2 µM (inactive); in test [14] it was 6.85 µM (inactive); in [15], > 71.6 µM (inactive); in test [16], 36.2 µM (inactive); in [17] it was 49.7 µM (inactive); in test [18], 29.2 µM (inactive). Moreover, the GI50 in test [19] was 37.7 µM (inactive); in test [20] it was 40.5 µM (inactive).
In the case of `Nc1nc(N)c2cc(Sc3ccc4ccccc4c3)ccc2n1`, the GI50 in test [1] is 0.479 µM (active); in test [2], 3.61 µM (inactive); in [3], 4.52 µM (inactive); in test [4] it was 5.79 µM (inactive); in test [5] it was 1.38 µM (inactive); in test [6], 1.79 µM (inactive). Also, the GI50 is 1.98 µM (inactive) in [7]; 1.3 µM (inactive) in test [8]; 0.687 µM (active) in test [9]; 1.07 µM (active) in test [10]; 4.18 µM (inactive) in [11]; 2.14 µM (inactive) in [12]. The GI50 in test [13] is 3.32 µM (inactive); in test [14] it was 3.11 µM (inactive); in [15] it was 13.8 µM (inactive); in [16] it was 1.03 µM (active); in test [17], 0.729 µM (active); in test [18], 2.12 µM (inactive). Besides, the values for the GI50 in [19] and in test [20] were 2.15 µM (inactive) and 2.76 µM (inactive), respectively.
For the molecule `Cc1cccc(N2C(=O)C3c4[nH]c5ccccc5c4C4CCC(C(C)(C)C)CC4C3C2=O)c1` (stereo unspecified), the GI50 in test [1] was 3.63 µM (inactive); in [2], 19 µM (inactive); in [3] it was 13.1 µM (inactive); in test [4], 12.4 µM (inactive); in [5], 46.3 µM (inactive); in [6] it was 13.5 µM (inactive). Moreover, the GI50 is 11.9 µM (inactive) in test [7]; 12 µM (inactive) in test [8]; 15.2 µM (inactive) in [9]; 15.7 µM (inactive) in test [10]; 12.9 µM (inactive) in test [11]; 12.7 µM (inactive) in test [12]. Also, the GI50 in test [13] is 12.4 µM (inactive); in test [14] it was 4.27 µM (inactive); in test [16], 14.2 µM (inactive); in [17], 11.8 µM (inactive); in test [18], 26.5 µM (inactive); in test [19], 17.3 µM (inactive). Also, the GI50 in test [20] is 15.3 µM (inactive).
For the molecule `CC(C)CCCC(C)[C@H]1CC[C@H]2n3c(nc4ccccc43)CCC[C@]12C` (stereo partly specified), the GI50 is 17.5 µM (inactive) in test [1]; 19.2 µM (inactive) in test [2]; 17.1 µM (inactive) in test [3]; 22 µM (inactive) in test [4]; 13.6 µM (inactive) in [5]; 8.79 µM (inactive) in test [6]. In addition, the GI50 in test [7] was 19.7 µM (inactive); in test [8] it was 14.2 µM (inactive); in test [9], 19.3 µM (inactive); in test [10], 18.2 µM (inactive); in test [11], 16 µM (inactive); in test [12], 10.8 µM (inactive). Moreover, the GI50 is 16.4 µM (inactive) in test [13]; 20.3 µM (inactive) in test [14]; 17.1 µM (inactive) in [15]; 15.9 µM (inactive) in [16]; 17.7 µM (inactive) in test [17]; 15.4 µM (inactive) in test [18]. Further, the GI50 in test [19] was 19.2 µM (inactive); in [20] it was 14.3 µM (inactive).
As for `Oc1ccc(Br)cc1/C=N/C1CCCCC1`, the GI50 is 22.9 µM (inactive) in test [1]; 35.3 µM (inactive) in test [2]; > 100 µM (inactive) in test [3]; 21.4 µM (inactive) in test [4]; 4.81 µM (inactive) in [5]; 42.3 µM (inactive) in [6]. The GI50 was 29.8 µM (inactive) in test [7]; 14.6 µM (inactive) in test [8]; 28.2 µM (inactive) in test [9]; 38.7 µM (inactive) in test [10]; 21.1 µM (inactive) in test [11]; 28.1 µM (inactive) in test [12]. Also, the GI50 was > 100 µM (inactive) in test [13]; 10.6 µM (inactive) in test [14]; 55.3 µM (inactive) in test [15]; < 0.01 µM (active) in test [16]; 24.8 µM (inactive) in [17]; 4.12 µM (inactive) in test [18]. The GI50 in test [19] was 12.4 µM (inactive); in test [20], 33.8 µM (inactive).
Take `Cc1ccc(NC(=O)/C(Cc2cc(=O)oc3cc(O)ccc23)=N\NC(C)(C)C)cc1C`: the GI50 in test [1], in test [2], in [3], in test [4], in test [5] and in [6] was > 100 µM (inactive) each time. For the same molecule, the GI50 in [7] is > 100 µM (inactive); in test [8], > 100 µM (inactive); in test [9] it was > 100 µM (inactive); in test [10], > 100 µM (inactive); in test [11] it was 68.9 µM (inactive); in test [12] it was > 100 µM (inactive). The GI50 in test [13], in test [14], in test [15], in test [16], in test [17] and in test [18] was > 100 µM (inactive) in each case. Besides, the GI50 in test [19] and in test [20] was > 100 µM (inactive) throughout.
With `O=c1c2cc(Cl)ccc2n2nnc3ccc(NCCNCCO)c1c32`, the GI50 in test [1] was 0.741 µM (active); in test [2], 1.79 µM (inactive); in test [3] it was 1.83 µM (inactive); in test [4] it was 3.44 µM (inactive); in test [5] it was 1.78 µM (inactive); in [6], 0.575 µM (active). Besides, the GI50 in [7] was 1.09 µM (active); in test [8], 2.76 µM (inactive); in [9], 1.12 µM (inactive); in test [10] it was 0.665 µM (active); in test [11], 1.01 µM (active); in [12] it was 1.53 µM (inactive). Besides, the GI50 in test [13] is 1.79 µM (inactive); in test [14], 2.74 µM (inactive); in test [15], 2.67 µM (inactive); in test [16] it was 0.731 µM (active); in test [17], 0.466 µM (active); in test [18], 5.15 µM (inactive). Moreover, the values for the GI50 in [19] and in test [20] were 0.853 µM (active) and 1.17 µM (inactive), respectively.
Turning to `O=C1CSC2=NCC3(NN12)c1ccccc1-c1ccccc13`, the GI50 in test [1], in test [2], in [3], in test [4], in [5] and in [6] was > 10 µM (inactive) throughout. Further, the GI50 in [7], in test [8], in [9], in test [10], in test [11] and in test [12] was > 10 µM (inactive) throughout. Besides, the GI50 in [13], in test [14], in [15], in [16], in [17] and in test [18] was > 10 µM (inactive) throughout. Moreover, the GI50 in test [20] is > 10 µM (inactive).
For the molecule `OC(NN=C1CCCC1)(C(F)(F)Cl)C(F)(F)Cl`, the GI50 in test [1], in test [2], in test [3], in [4], in test [5] and in [6] was > 10 µM (inactive) throughout. Also, the GI50 in test [7], in [8], in test [9], in test [10], in test [11] and in test [12] was > 10 µM (inactive) throughout. The GI50 in test [13], in test [14], in test [15], in test [16], in test [17] and in test [18] was > 10 µM (inactive) in each case. In addition, in test [19], the GI50 was > 10 µM (inactive).
With `COC(=O)c1ccccc1/C=C1\Cc2c(ccc3c2CCC3)C1=O`, the GI50 was 70 µM (inactive) in [1]; > 100 µM (inactive) in [2]; > 100 µM (inactive) in test [3]; > 100 µM (inactive) in [4]; > 100 µM (inactive) in test [5]; > 100 µM (inactive) in test [6]. The GI50 in [7], in [8], in test [9], in test [10], in test [11] and in test [12] was > 100 µM (inactive) in each case. The GI50 in test [13] was > 100 µM (inactive); in test [14], > 100 µM (inactive); in test [16], > 100 µM (inactive); in [17], > 100 µM (inactive); in test [18], > 100 µM (inactive); in [19], 68.4 µM (inactive). For the same molecule, the GI50 in test [20] was > 100 µM (inactive).
